According to the NIST ThermoML archive (doi:10.1016/j.jct.2009.11.010):
Numbers after ± are expanded uncertainties.

What was measured:
[1] = molar heat capacity at saturation pressure; conditions: Liquid
[2] = Liquid, Vibrating tube method

c1ccc2nc3ccccc3cc2c1 [acridine]
Conditions	mass density [kg/m3]	molar heat capacity [J/K/mol]
[1], 460 K	–	343.6 ± 3.4
[1], 480 K	–	352.2 ± 3.5
[1], 500 K	–	360.6 ± 3.6
[1], 520 K	–	368.7 ± 3.7
[1], 540 K	–	376.4 ± 3.7
[1], 560 K	–	383.8 ± 3.8
[1], 580 K	–	390.8 ± 3.9
[1], 600 K	–	397.3 ± 4
[2], 423.15 K	1064.9 ± 1.1	–
[2], 448.15 K	1043.7 ± 1	–
[2], 473.15 K	1023.9 ± 1	–
[2], 498.15 K	1005.1 ± 1	–
[2], 523.15 K	985.4 ± 1	–
[2], 548.15 K	964.8 ± 1	–
